Tested on: patients with advanced solid tumors
Assay: First-in-human phase 1 dose-escalation study: safety, DLTs, adverse events
Type: in vivo
Excerpt: This multicenter first-in-human dose-escalation phase 1 study (clinicaltrials.gov identifier: NCT03272256) was designed to determine the MTD or RP2D and to evaluate the safety and tolerability of IM156. Secondary endpoints included PK characteristics, efficacy assessment (objective response rate [ORR], disease control rate [DCR], duration of response [DoR] and progression-free survival [PFS]). Furthermore, exploratory objectives included identification and profiling of IM156 metabolites, evaluations of exploratory PD markers of IM156, and evaluations of any potential relationship between putative biomarkers and safety/efficacy parameters of IM156. The study was conducted in accordance with Good Clinical Practice, the International Council for Harmonisation, and guidelines governing clinical study conduct and the ethical principles originating from the Declaration of Helsinki. The study was approved by each Institutional Review Board and patients provided written informed consent. Patients were enrolled at three sites in South Korea.
The initial dose and schedule of IM156 was chosen based on animal toxicology studies. […] IM156 was administered in the fasted state, with no food for at least 2 h before and 1 h after dosing.
Three DLT-evaluable patients were enrolled at each dose level. If there were no DLTs or other prohibitive adverse events (AEs), the Safety Committee was allowed to recommend escalation to the next highest dose level. If 1 DLT occurred in the first 3 DLT-evaluable patients, enrollment in that cohort was expanded to an additional 3 DLT-evaluable patients; if ≥ 2 DLTs were reported in a cohort, that dose was considered above the MTD.
Safety was assessed through vital signs, weight, laboratory assessments, physical examinations, electrocardiogram, and reporting of AEs as graded by the National Cancer Institute’s Common Terminology Criteria for Adverse Events v4.03 (NCI-CTCAE).
DLTs were defined as the following AEs if they were attributed as related to IM156: asymptomatic grade 4 neutropenia lasting for ≥ 5 days; febrile neutropenia, regardless of grade; grade 4 thrombocytopenia or grade 3 thrombocytopenia with bleeding; any grade ≥ 3 non-hematologic AE (except grade 3 hypertension and grade 3 nausea, vomiting or diarrhea for which proper measures for prevention and treatment were not implemented, and alopecia); blood lactate levels > 5 mmol; grade ≥ 2 AE prohibiting dosing of IM156 for ≥ 21 continuous days except for alterations in serum calcium or phosphorus levels. The safety analysis includes all patients who received at least one dose of study drug.
The safety population was defined as all patients who received at least one dose of IM156. The PK population was not defined in the protocol but included all patients with sufficient PK data to perform adequate PK modeling. The efficacy population included all patients who underwent at least one tumor imaging assessment while receiving IM156. Safety was assessed using descriptive statistics (e.g., DLTs, AEs, laboratory tests, physical examination, 12-lead ECG). The incidence and number of events were reported for the DLTs observed in Cycle 1 per dose group. […] Adverse events and TRAEs were standardized with the System Organ Class and the Preferred Term using the Medical Dictionary for Regulatory Activities v23.0. In addition, TEAEs, serious adverse events (SAEs), TEAE severity, and TEAEs leading to withdrawal were presented by dose group. Efficacy data were to be presented by Waterfall and Swim Lane plots. Time to event endpoints (e.g., DoR, PFS) were determined using Kaplan–Meier estimations with the median value for each endpoint summarized.

[1] = DL4 800 mg orally every other day (n=3)
[2] = DL5 1200 mg orally every other day (n=3)

NC(=Nc1ccc(OC(F)(F)F)cc1)N=C(N)N1CCCC1 [IM156]
0: TEAE Anaemia grade 4 [1] | TEAE Appendicitis perforated grade 1 [1] | TEAE Appendicitis perforated grade 2 [1] | TEAE Appendicitis perforated grade 3 [1] | TEAE Appendicitis perforated grade 4 [1] | TEAE Back pain grade 1 [1] | TEAE Back pain grade 3 [1] | TEAE Back pain grade 4 [1] | TEAE Cystitis grade 1 [1] | TEAE Cystitis grade 3 [1] | TEAE Cystitis grade 4 [1] | TEAE Dry skin grade 1 [1] | TEAE Dry skin grade 2 [1] | TEAE Dry skin grade 3 [1] | TEAE Dry skin grade 4 [1] | TEAE Flank pain grade 1 [1] | TEAE Flank pain grade 2 [1] | TEAE Flank pain grade 3 [1] | TEAE Flank pain grade 4 [1] | TEAE Hypertension grade 1 [1] | TEAE Hypertension grade 2 [1] | TEAE Hypertension grade 3 [1] | TEAE Hypertension grade 4 [1] | TEAE Hypotension grade 1 [1] | TEAE Hypotension grade 2 [1] | TEAE Hypotension grade 3 [1] | TEAE Hypotension grade 4 [1] | TEAE Insomnia grade 1 [1] | TEAE Insomnia grade 2 [1] | TEAE Insomnia grade 3 [1] | TEAE Insomnia grade 4 [1] | TEAE Pain in extremity grade 1 [1] | TEAE Pain in extremity grade 3 [1] | TEAE Pain in extremity grade 4 [1] | TEAE Pruritus grade 1 [1] | TEAE Pruritus grade 2 [1] | TEAE Pruritus grade 3 [1] | TEAE Pruritus grade 4 [1] | TEAE Psychiatric disorders grade 1 [1] | TEAE Psychiatric disorders grade 2 [1] | TEAE Psychiatric disorders grade 3 [1] | TEAE Psychiatric disorders grade 4 [1] | TEAE Purpura grade 1 [1] | TEAE Purpura grade 2 [1] | TEAE Purpura grade 3 [1] | TEAE Purpura grade 4 [1] | TEAE Urinary retention grade 1 [1] | TEAE Urinary retention grade 3 [1] | TEAE Urinary retention grade 4 [1] | TEAE Urinary tract disorder grade 1 [1] | TEAE Urinary tract disorder grade 2 [1] | TEAE Urinary tract disorder grade 3 [1] | TEAE Urinary tract disorder grade 4 [1] | TRAE Abdominal Pain, > G3 (patients) (DL5 1,200 mg QOD oral, N = 3) | TRAE Abdominal Pain, All grades (patients) (DL5 1,200 mg QOD oral, N = 3) | TRAE Blood Lactic Acid increased, > G3 (patients) (DL5 1,200 mg QOD oral, N = 3) | TRAE Blood Lactic Acid increased, All grades (patients) (DL5 1,200 mg QOD oral, N = 3) | TRAE Constipation, > G3 (patients) (DL5 1,200 mg QOD oral, N = 3) | TRAE Constipation, All grades (patients) (DL5 1,200 mg QOD oral, N = 3) | TRAE Decreased appetite, > G3 (patients) (DL5 1,200 mg QOD oral, N = 3) | TRAE Diarrhoea, > G3 (patients) (DL5 1,200 mg QOD oral, N = 3) | TRAE Fatigue, > G3 (patients) (DL5 1,200 mg QOD oral, N = 3) | TRAE Fatigue, All grades (patients) (DL5 1,200 mg QOD oral, N = 3) | TRAE Insomnia, > G3 (patients) (DL5 1,200 mg QOD oral, N = 3) | TRAE Insomnia, All grades (patients) (DL5 1,200 mg QOD oral, N = 3) | TRAE Vomiting, > G3 (patients) (DL5 1,200 mg QOD oral, N = 3) | TEAE Adrenal insufficiency grade 1 [2] | TEAE Adrenal insufficiency grade 3 [2] | TEAE Adrenal insufficiency grade 4 [2] | TEAE Anaemia grade 1 [2] | TEAE Anaemia grade 2 [2] | TEAE Anaemia grade 4 [2] | TEAE Appendicitis perforated grade 1 [2] | TEAE Appendicitis perforated grade 2 [2] | TEAE Appendicitis perforated grade 3 [2] | TEAE Appendicitis perforated grade 4 [2] | TEAE Back pain grade 1 [2] | TEAE Back pain grade 2 [2] | TEAE Back pain grade 3 [2] | TEAE Back pain grade 4 [2] | TEAE Cystitis grade 1 [2] | TEAE Cystitis grade 2 [2] | TEAE Cystitis grade 3 [2] | TEAE Cystitis grade 4 [2]
2: TEAE Back pain grade 2 [1] | TRAE Diarrhoea, All grades (patients) (DL5 1,200 mg QOD oral, N = 3) | TRAE Nausea, All grades (patients) (DL5 1,200 mg QOD oral, N = 3) | TRAE Vomiting, All grades (patients) (DL5 1,200 mg QOD oral, N = 3)
1: TEAE Cystitis grade 2 [1] | TEAE Pain in extremity grade 2 [1] | TEAE Urinary retention grade 2 [1] | TEAE Abdominal pain, grade 1 (DL5 1200 mg QOD (n=3)) | TEAE Alanine aminotransferase increased, grade 3 (DL5 1200 mg QOD (n=3)) | TEAE Aspartate aminotransferase increased, grade 2 (DL5 1200 mg QOD (n=3)) | TEAE Aspartate aminotransferase increased, grade 3 (DL5 1200 mg QOD (n=3)) | TEAE Asthenia, grade 1 (DL5 1200 mg QOD (n=3)) | TEAE Blood alkaline phosphatase increased, grade 2 (DL5 1200 mg QOD (n=3)) | TEAE Blood alkaline phosphatase increased, grade 3 (DL5 1200 mg QOD (n=3)) | TEAE Constipation, grade 1 (DL5 1200 mg QOD (n=3)) | TEAE Decreased appetite, grade 1 (DL5 1200 mg QOD (n=3)) | TEAE Diarrhoea, grade 1 (DL5 1200 mg QOD (n=3)) | TEAE Diarrhoea, grade 2 (DL5 1200 mg QOD (n=3)) | TEAE Fatigue, grade 2 (DL5 1200 mg QOD (n=3)) | TEAE Gamma-glutamyltransferase increased, grade 2 (DL5 1200 mg QOD (n=3)) | TEAE Gamma-glutamyltransferase increased, grade 3 (DL5 1200 mg QOD (n=3)) | TEAE Headache, grade 1 (DL5 1200 mg QOD (n=3)) | TEAE Hypoalbuminaemia, grade 2 (DL5 1200 mg QOD (n=3)) | TEAE Hypocalcemia, grade 2 (DL5 1200 mg QOD (n=3)) | TEAE Nausea, grade 1 (DL5 1200 mg QOD (n=3)) | TEAE Nausea, grade 3 (DL5 1200 mg QOD (n=3)) | TEAE Oropharyngeal pain, grade 1 (DL5 1200 mg QOD (n=3)) | TEAE Pyrexia, grade 1 (DL5 1200 mg QOD (n=3)) | TEAE Vomiting, grade 1 (DL5 1200 mg QOD (n=3)) | TEAE Vomiting, grade 2 (DL5 1200 mg QOD (n=3)) | TRAE Decreased appetite, All grades (patients) (DL5 1,200 mg QOD oral, N = 3) | TRAE Nausea, > G3 (patients) (DL5 1,200 mg QOD oral, N = 3) | TEAE Adrenal insufficiency grade 2 [2] | TEAE Anaemia grade 3 [2]

Reference: PMC9395488, “First-in-human study of IM156, a novel potent biguanide oxidative phosphorylation (OXPHOS) inhibitor, in patients with advanced solid tumors” (Investigational New Drugs, 2022)
